Reference: patent US4083994A, “Choleretics” (Hisamitsu Pharmaceutical Co., Inc., priority 1975, dated 1978)

What was measured:
bile secretion [1] = assay: Bile secretion test in rats; assay type: in vivo, male Wistar rats; details: oral; for Bile volume secreted after administration: rat, volume in 1 h before administration = 100%; for Volume of bile secreted relative to one hour before administration: rats
Method: Male Wistar rats weighing 200-210 g were fasted overnight and laparotomized under urethane anesthesia(Subcutaneous injection at a dose of 1.5 g/kg). A polyethylene tube was inserted into the common bile duct. The bile was collected for one hour from 30 minutes after the operation. Subsequently, the animals were given orally the test drugs, each 50 mg of which was suspended in 1 ml of 5% gum arabic aqueous solution. The bile was collected for 5 hours after the drug administration. The volume of the bile secreted at hourly intervals after the drug administration was expressed in %, defining the volume secreted for one hour before the drug administration as 100%, as shown in Table 1.
About 500 mg of p-menth-1-ene-8,9-diol were weighed accurately, and suspended in 10 ml of 5% gum arabic aqueous solution. […] Male rats of Wistar strain weighing 200 g were fasted overnight, anesthetized by subcutanous injection of 0.3 g of urethane and laparotomized. A polyethylene tube was inserted into the common bile duct. The bile was collected for one hour from 30 minutes after the operation. […]
About 500 mg of 9-acetoxy-p-menth-1-en-8-ol was weighed accurately and suspended in 10ml of 5% gum arabic aqueous solution. […] Male rats of Wistar strain weighing about 210 g were fasted overnight and anesthetized by subcutaneous injection of 0.32 g of urethane and then laparotomized. A polyethylene tube was inserted into the common bile duct, and the bile secreted through the duct was collected for one hour from 30 minutes after the operation. Subsequently, the choleretic of the present invention was administered orally in a volume of 1.05 ml (250 mg/kg).

bile secretion [2] = assay: Bile secretion test in dogs; assay type: in vivo, male mongrel dogs; details: dog, into duodenum, volume in 1 h before administration = 100%
Method: Male mongrel dogs weighing approximately 8 kg were anesthetized with intravenous injection of […] of pentobarbital and further with subcutaneous injection of urethane at a dose of 1.0 g/kg and laparotomized. One canula was inserted into the common bile duct and directed to the liver for collection of the bile, and the other canula was inserted into the duodenum for the drug administration. The cholecystic duct was ligated and the gallbladder bile was aspirated with an injection syringe. The operation was finished by suture of the peritoneum. The bile was collected for one hour from 30 minutes after the operation. The animals were given the test drugs, each 50 mg of which was suspended in 1 ml of 5% gum arabic aqueous solution, through the canula for the drug administration. The bile was collected at hourly intervals for 6 hours after the drug administration. Defining the volume of the bile secreted for one hour before the drug administration as 100%, the volume secreted at hourly intervals after the drug administration was expressed in %, as shown in Table 2.
The mean volume secreted for one hour before the drug administration was 1798 μl.
This suspension was used as a choleretic of the present invention. A male mongrel dog weighing 8.8 kg was fasted overnight and anesthetized by subcutaneous injection of 1.0 mg/kg of urethane and laparotomized. One canula was inserted into the common bile duct and directed to the liver for collection of the bile, and the other canula was also inserted into the duodenum for the drug administration. Subsequently, the cholecystic duct was ligated and the gallbladder bile was aspirated with an injection syringe. The operation was finished after suturing the peritoneum. The bile was collected for one hour from 30 minutes after the operation, and subsequently, 44 ml of the test drug prepared above (250 mg/kg) was given through the canula for the drug administration. The volume of the bile secreted for the first, second and third one hour after the drug administration were 2.2, 2.1 and 1.9 times larger, respectively, than that secreted for one hour before the drug administration.
About 2.5 g of 9-propionyloxy-p-menth-1-en-8-ol was weighed accurately and suspended in 50 ml of 5% gum arabic aqueous solution. This suspension was used as a choleretic of the present invention. A male mongrel dog weighing 7.6 kg was fasted overnight and anesthetized by subcutaneous injection of 1.0 mg/kg of urethane and then laparotomized. One canula was inserted into the common bile duct and directed to the liver for collection of the bile, and the other canula into the duodenum for the drug administration. Subsequently, the cholecystic duct was ligated and the gallbladder bile was aspirated with an injection syringe. The operation was finished by suturing the peritoneum. The bile was collected for one hour from 30 minutes after the operation, and 50 ml (330 mg/kg) of the test drug prepared above was administered through the canula for the drug administration. The volume of the bile secreted for the first, second and third one hour after the drug administration was 3.2, 5.0 and 4.7 times larger, respectively, than that secreted for one hour before the drug administration.

[3] = Acute toxicity test in mice; details: mouse, in vivo, oral, parentheses: 95% confidence limit
Method: (§1) The test drugs were suspended in 5% gum arabic aqueous solution to make 50 mg/ml, and given orally male mice of ddY strain weighing 18-22 g and male rats of Wistar strain weighing 95-120 g. The LD50 values were calculated from the mortality of the animals that ensued during the 72 hours following the drug administration

[4] = Acute toxicity test in rats; parameters: species or system male rats of Wistar strain; details: rat, in vivo, oral, parentheses: 95% confidence limit
Method: as §1

[5] = tested on: sleeping time induced by hexobarbital; assay: Effects on the sleeping time induced by hexobarbital (metabolism function of the liver); assay type: in vivo, male rats of Wistar strain; details: rats, 250 mg/kg oral once daily for a week; hexobarbital sodium 100 mg/kg i.p.; control 17.1 ± 0.9
Method: About 500 mg of the test drugs were weighed accurately and suspended in 2 ml of 5% gum arabic aqueous solution. Ten male rats of Wistar strain were used per group and given orally the test drugs prepared above in a volume of 0.1 ml/100 g body weight (equivalent to 250 mg/kg), once daily (at 8.30-9.00 a.m.), for a week. The animals were fasted overnight after the last administration of the test drugs. Subsequently, 10% hexobarbital sodium aqueous solution was injected intraperitoneally in a volume of 0.1 ml (equivalent to 100 mg/kg) and the sleeping time was measured. The animals were regarded as sleeping when the loss of righting reflex persist for more than 30 seconds.

Compound: CC(=O)OCC(C)(O)C1CC=C(C)CC1 (stereo not shown) [9-Acetoxy-p-menth-1-en-8-ol, 9-acetoxy-p-menth-1-en-8-ol]
- Bile volume secreted after administration (bile secretion [1]; 100 mg/kg, 0-1 hr): 125%
- Bile volume secreted after administration (bile secretion [1]; 100 mg/kg, 1-2 hr): 109%
- Bile volume secreted after administration (bile secretion [1]; 100 mg/kg, 2-3 hr): 96%
- Bile volume secreted after administration (bile secretion [1]; 100 mg/kg, 3-4 hr): 82%
- Bile volume secreted after administration (bile secretion [1]; 100 mg/kg, 4-5 hr): 75%
- Bile volume secreted after administration (bile secretion [1]; 310 mg/kg, 0-1 hr): 196%
- Bile volume secreted after administration (bile secretion [1]; 310 mg/kg, 1-2 hr): 172%
- Bile volume secreted after administration (bile secretion [1]; 310 mg/kg, 2-3 hr): 145%
- Bile volume secreted after administration (bile secretion [1]; 310 mg/kg, 3-4 hr): 124%
- Bile volume secreted after administration (bile secretion [1]; 310 mg/kg, 4-5 hr): 114%
- Bile volume secreted after administration (bile secretion [1]; 930 mg/kg, 0-1 hr): 218%
- Bile volume secreted after administration (bile secretion [1]; 930 mg/kg, 1-2 hr): 203%
- Bile volume secreted after administration (bile secretion [1]; 930 mg/kg, 2-3 hr): 172%
- Bile volume secreted after administration (bile secretion [1]; 930 mg/kg, 3-4 hr): 154%
- Bile volume secreted after administration (bile secretion [1]; 930 mg/kg, 4-5 hr): 130%
- Volume of bile secreted relative to one hour before administration (bile secretion [1]; 250 mg/kg, first hour): 1.9 times
- Volume of bile secreted relative to one hour before administration (bile secretion [1]; 250 mg/kg, second hour): 1.7 times
- Volume of bile secreted relative to one hour before administration (bile secretion [1]; 250 mg/kg, third hour): 1.4 times
- Bile volume secreted after administration (bile secretion [2]; 310 mg/kg, 0-1 hr): 395%
- Bile volume secreted after administration (bile secretion [2]; 310 mg/kg, 1-2 hr): 457%
- Bile volume secreted after administration (bile secretion [2]; 310 mg/kg, 2-3 hr): 534%
- Bile volume secreted after administration (bile secretion [2]; 310 mg/kg, 3-4 hr): 464%
- Bile volume secreted after administration (bile secretion [2]; 310 mg/kg, 4-5 hr): 277%
- Bile volume secreted after administration (bile secretion [2]; 310 mg/kg, 5-6 hr): 157%
- LD50 at 72 h [3]: 1000 to 2000 mg/kg
- LD50 at 72 h [4]: 8300 mg/kg
- Sleeping time [5]: 18.1 ± 1.5 min

Compound: CC1=CCC(C(C)(O)CO)CC1 (stereo not shown) [p-Menth-1-ene-8,9-diol, p-menth-1-ene-8,9-diol]
- Bile volume secreted after administration (bile secretion [1]; 80 mg/kg, 0-1 hr): 155%
- Bile volume secreted after administration (bile secretion [1]; 80 mg/kg, 1-2 hr): 118%
- Bile volume secreted after administration (bile secretion [1]; 80 mg/kg, 2-3 hr): 101%
- Bile volume secreted after administration (bile secretion [1]; 80 mg/kg, 3-4 hr): 93%
- Bile volume secreted after administration (bile secretion [1]; 80 mg/kg, 4-5 hr): 85%
- Bile volume secreted after administration (bile secretion [1]; 250 mg/kg, 0-1 hr): 213%
- Bile volume secreted after administration (bile secretion [1]; 250 mg/kg, 1-2 hr): 170%
- Bile volume secreted after administration (bile secretion [1]; 250 mg/kg, 2-3 hr): 122%
- Bile volume secreted after administration (bile secretion [1]; 250 mg/kg, 3-4 hr): 99%
- Bile volume secreted after administration (bile secretion [1]; 250 mg/kg, 4-5 hr): 89%
- Bile volume secreted after administration (bile secretion [1]; 750 mg/kg, 0-1 hr): 218%
- Bile volume secreted after administration (bile secretion [1]; 750 mg/kg, 1-2 hr): 199%
- Bile volume secreted after administration (bile secretion [1]; 750 mg/kg, 2-3 hr): 175%
- Bile volume secreted after administration (bile secretion [1]; 750 mg/kg, 3-4 hr): 153%
- Bile volume secreted after administration (bile secretion [1]; 750 mg/kg, 4-5 hr): 139%
- Volume of bile secreted relative to one hour before administration (bile secretion [1]; 250 mg/kg, first hour): 2.1 times
- Volume of bile secreted relative to one hour before administration (bile secretion [1]; 250 mg/kg, second hour): 1.7 times
- Volume of bile secreted relative to one hour before administration (bile secretion [1]; 250 mg/kg, third hour): 1.2 times
- Bile volume secreted after administration (bile secretion [2]; 250 mg/kg, 0-1 hr): 176%
- Bile volume secreted after administration (bile secretion [2]; 250 mg/kg, 1-2 hr): 168%
- Bile volume secreted after administration (bile secretion [2]; 250 mg/kg, 2-3 hr): 122%
- Bile volume secreted after administration (bile secretion [2]; 250 mg/kg, 3-4 hr): 65%
- Bile volume secreted after administration (bile secretion [2]; 250 mg/kg, 4-5 hr): 41%
- LD50 at 72 h [3]: 1800 mg/kg
- Sleeping time [5]: 17.8 ± 0.3 min
